# Laboratory results reported in the supplement of paper PMC10307832.
# How the values were obtained:
# Assay in all cases: relative viability (nuclei count vs DMSO), 5 days (fraction); higher = more cells survive
# [1] = compound: CCC1=CN=CN=C1N2CCN(CC2)CC3=NC4=C(N3)C=C(C=C4)C(F)(F)F + CC(=O)Nc1cccc(-n2c(=O)n(C3CC3)c(=O)c3c(Nc4ccc(I)cc4F)n(C)c(=O)c(C)c32)c1 [Trametinib] (partner 0.02 µM)
# Method in brief: (§1)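 Medians of duplicate plates are given as relative viability. That measure is the nuclei count in treated wells divided by the count in vehicle wells. Counts were taken on 4× images of lung cancer cell lines in 1536-well plates, 5 days after pin-tool dosing the day after seeding with one drug alone or a fixed anchor-drug dose plus five library-drug doses (not always all listed) in √10 steps.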
# [2] = compound: CCC1=CN=CN=C1N2CCN(CC2)CC3=NC4=C(N3)C=C(C=C4)C(F)(F)F + Nc1nc2[nH]cc(CCc3ccc(C(=O)N[C@@H](CCC(=O)O)C(=O)O)cc3)c2c(=O)[nH]1 [Pemetrexed] (partner 0.2 µM)
# Method in brief: as §1
# [3] = compound: CCn1c(-c2nonc2N)nc2cnc(Oc3cccc(NC(=O)c4ccc(OCCN5CCOCC5)cc4)c3)cc21 + CCNC(=O)c1noc(-c2cc(C(C)C)c(O)cc2O)c1-c1ccc(CN2CCOCC2)cc1 [Luminespib] (partner 0.01 µM)
# Method in brief: as §1
# [4] = compound: CCn1c(-c2nonc2N)nc2cnc(Oc3cccc(NC(=O)c4ccc(OCCN5CCOCC5)cc4)c3)cc21 + NC(=O)Nc1cc(-c2cccc(F)c2)sc1C(=O)N[C@H]1CCCNC1 [AZD7762] (partner 0.2 µM)
# Method in brief: as §1
Cell Line,relative viability ([1]; first compound 0.04 µM),relative viability ([1]; first compound 0.1265 µM),relative viability ([1]; first compound 0.4 µM),relative viability ([1]; first compound 1.265 µM),relative viability ([1]; first compound 4 µM),relative viability ([2]; first compound 0.04 µM),relative viability ([2]; first compound 0.1265 µM),relative viability ([2]; first compound 0.4 µM),relative viability ([2]; first compound 1.265 µM),relative viability ([2]; first compound 4 µM),relative viability ([3]; first compound 0.04 µM),relative viability ([3]; first compound 0.1265 µM),relative viability ([3]; first compound 0.4 µM),relative viability ([3]; first compound 1.265 µM),relative viability ([3]; first compound 4 µM),relative viability ([4]; first compound 0.04 µM),relative viability ([4]; first compound 0.1265 µM),relative viability ([4]; first compound 0.4 µM),relative viability ([4]; first compound 1.265 µM),relative viability ([4]; first compound 4 µM)
RERF-LC-KJ,0.795,0.798,0.821,0.76,0.774,0.393,0.455,0.459,0.441,0.476,1.35,1.21,1.04,0.795,0.64,0.941,0.956,0.448,0.298,0.538
CAL-12T,0.256,0.352,0.356,0.267,0.37,1.3,1.18,1.19,1.24,1.18,0.687,0.444,0.287,0.379,0.286,0.675,0.601,0.56,0.267,0.353
COR-L 105,0.42,0.418,0.501,0.416,0.44,1.07,1.12,1.28,1.01,1.03,0.657,0.282,0.592,0.445,0.247,–,–,–,–,–
NCI-H2405,0.676,0.666,0.624,–,0.68,1.02,1.05,0.992,–,1.15,0.735,0.49,0.219,0.217,0.214,0.446,0.18,0.14,0.144,0.137
NCI-H2228,–,0.471,0.397,0.221,0.586,–,0.363,0.335,0.303,0.294,0.118,0.109,0.133,0.162,0.124,–,–,–,–,–
PC-14,0.828,0.808,0.714,0.71,0.779,0.135,0.153,0.141,0.13,0.135,0.15,0.136,0.154,0.154,0.173,0.334,0.323,0.218,0.215,0.232
NCI-H2087,0.172,0.226,0.244,0.215,0.189,0.634,0.732,0.72,0.632,0.55,0.161,0.143,0.181,0.153,0.143,1.45,1.11,1.13,0.845,0.867
NCI-H2342,0.748,0.906,0.826,0.503,0.511,0.785,0.751,0.652,0.518,0.625,0.763,0.847,0.715,0.665,0.785,0.572,0.551,0.361,0.422,0.459
NCI-H1623,–,–,–,–,–,–,–,–,–,–,0.527,0.555,0.509,0.49,0.706,–,–,–,–,–
